Patent EP0055702B1, “Antithrombotic treatment” (priority 1980, dated 1982)
Where two headings read alike, the source gives them in different places.

Assays:
[1] = test system: human, rabbit and rat plasma; test: PT (prothrombin time) in plasma in vitro, Example 3; type: biochemical; conditions: for PT (seconds) Exp.2 A / PT (seconds) Exp. 1 A: active agent 0.5/ml, control; for prolongation of PT: 0.5 mg/ml, human, rabbit and rat plasma in vitro, dose-related
From the text: (§1) Sodium, potassium and ammonium bisulphites are found to prolong PT and PTT in a dose-related fashion.
(§2) The evaluation procedure used is that described in "Human Blood Coagulation, Haemostasis and Thrombosis", edited by Rosemary Biggs, published by Blackwell Scientific Publications, Oxford, England (2nd Edition), pages 670-705, 1976.

[2] = PT of coded and various agents, Example 6; type: biochemical
From the text: (§3) A variety of agents were coded and evaluated under a code designation. Among these compounds, thiouracil, mercaptosuccinic acid, thiosemicarbazide, phenothiazine and sodium thiosulphate were included, so as to compare sodium bisulphite with certain compounds mentioned in USP 4,148,855.
(§4) After determination of PT and PTT values, the coded compounds were decoded.
(§5) The results are shown in Table V, where mean values of 5 replications in each case are reported. […] This procedure was repeated with some additional compounds on two different days using a different control on each day.

[3] = PTT of coded and various agents, Example 6; type: biochemical; conditions: for PTT: Table V, coded agents 0.5 mg/ml, Control 43.38
From the text: as §3, §4, §5

[4] = test system: human, rabbit and rat plasma; test: PTT (partial thromboplastin time) in plasma in vitro, Example 3; type: biochemical; conditions: for PTT (seconds) Exp. 2 A / PTT (seconds) Exp. 1 A: active agent 0.5/ml, control; for prolongation of PTT: 0.5 mg/ml, human, rabbit and rat plasma in vitro, dose-related
From the text: as §1, §2

[5] = test system: platelet-fibrinogen preparations; conditions: 10 to 50 mM; Chao; cited from earlier work
thrombin = conditions: Elias; cited from earlier work
dog plasma = conditions: 10 mM, Elias; cited from earlier work
[6] = test system: celite-fibrinogen suspension; conditions: Chao, cited from earlier work
blood coagulation time = conditions: 10 mM; Kikugawa; cited from earlier work
[7] = rabbits; cited from earlier work
[8] = coded compounds after decoding, in vitro
[9] = Table V, coded agents 0.5 mg/ml, Control 12.92

**Q.** For `O=S([O-])S(=O)(=O)[O-].[K+].[K+]` [Potassium metabisulphite], which “PT (seconds) Exp.2 A” value ([1]; Test sequence A) is on record?
**A.** 22.0 s

**Q.** For `O=S(=O)(O)CO` [SO3, Sodium formaldehyde bisulphite, reference compound], which “effect on PT values” [2, 8] is on record?
**A.** effected in increasing PT and PTT values

**Q.** And the “effect on PTT values” [3, 8]?
**A.** effected in increasing PT and PTT values

**Q.** With `O=S([O-])S(=O)(=O)[O-].[Na+].[Na+]` [Sodium metabisulphite] as the compound, how does the “PTT (seconds) Exp. 2 A” value ([4]; Test sequence A) read?
**A.** 80.3 s

**Q.** For Ammonium sulphite, which “PT (seconds) Exp. 1 A” value ([1]; Test sequence A) is on record?
**A.** 14.7 s

**Q.** And the “PT (seconds) Exp.2 A” value ([1]; Test sequence A)?
**A.** 16.9 s

**Q.** And the “PTT (seconds) Exp. 1 A” value ([4]; Test sequence A)?
**A.** 56.5 s

**Q.** And the “PTT (seconds) Exp. 2 A” value ([4]; Test sequence A)?
**A.** 65.2 s

**Q.** And the “PT” value [2]?
**A.** 16.08 s

**Q.** What does the source list for “Dihydroxymalcic acid 2 H2O [Solution A3, reference compound]”?
**A.** PT [2, 9]: 14.95 s; PTT [3]: 53.00 s

**Q.** With Sodium sulphite as the compound, how does the “PT (seconds) Exp. 1 A” value ([1]; Test sequence A) read?
**A.** 16.2 s

**Q.** What about the “PT (seconds) Exp.2 A” value ([1]; Test sequence A) of the same compound?
**A.** 17.7 s

**Q.** What about the “PT (seconds) Exp. 1 A” value ([1]; Test sequence B) of the same compound?
**A.** 16.8 s

**Q.** What about the “PT (seconds) Exp.2 A” value ([1]; Test sequence B) of the same compound?
**A.** 17.7 s

**Q.** And the “PTT (seconds) Exp. 1 A” value ([4]; Test sequence A)?
**A.** 66.1 s

**Q.** And the “PTT (seconds) Exp. 2 A” value ([4]; Test sequence A)?
**A.** 80.7 s

**Q.** What about the “PTT (seconds) Exp. 1 A” value ([4]; Test sequence B) of the same compound?
**A.** 74.8 s

**Q.** What about the “PTT (seconds) Exp. 2 A” value ([4]; Test sequence B) of the same compound?
**A.** 82.1 s

**Q.** What about the “PT” value [2] of the same compound?
**A.** 16.38 s

**Q.** And the “PT” value [2, 9]?
**A.** 16.14 s

**Q.** What about the “effect on the first wave of platelet-fibrinogen preparations” value [5] of the same compound?
**A.** no effect

**Q.** And the “PTT” value [3]?
**A.** 64.62 s

**Q.** And the “inhibitory effect on TAME esterolytic activity of thrombin” value (thrombin)?
**A.** No inhibitory effect

**Q.** And the “increase of thrombin time” value (dog plasma)?
**A.** about 38%

**Q.** And the “inhibition of thrombin-induced light transmission increase (LTI)” value ([6]; 10 mM)?
**A.** partial inhibition

**Q.** What about the “inhibition of thrombin-induced light transmission increase (LTI)” value ([6]; 50 mM) of the same compound?
**A.** complete inhibition

**Q.** With “Sodium thiosulphate [SI6, reference compound]” as the compound, how does the “PT” value [2] read?
**A.** 13.5 s

**Q.** Which “prolongation of PT” value [1] does the source give for ammonium bisulphite here?
**A.** significantly prolong

**Q.** And the “prolongation of PTT” value [4]?
**A.** significantly prolong

**Q.** Which results are given for potassium bisulphite?
**A.** prolongation of PT [1]: significantly prolong; prolongation of PTT [4]: significantly prolong

**Q.** For sodium bisulphite/sulphite, which “effect on blood coagulation time” value (blood coagulation time) is on record?
**A.** no effect

**Q.** What about the LD50 [7] of the same compound?
**A.** 65 mg/kg
